Assay results from patent US20240174622A1, “COMPOUND AND RADIOACTIVE LABELING COMPOUND” (NIHON MEDI-PHYSICS CO., LTD., priority 2021, published 2024).

Legend:
[1] = test system: LNCaP tumor; test: SPECT/CT using LNCaP tumor-transplanted mouse; assay type: in vivo; settings: 24 (and 48) hours after administration
Method: (§1) LNCaP tumor-implanted mice prepared by the method described above were administered saline solutions (1.9 to 3.0 MBq, 150 μL) of [^111In]In-PSMA-DA1 or [^111In]In-PSMA-DB from the tail vein. SPECT/CT was performed 24 and 48 hours after administration with FX3300 pre-clinical imaging system, which is manufactured by Gamma Medica-Ideas. Imaging was performed using a pinhole collimator with a diameter of 1.0 mm at a rotation radius of 35 mm, a projection time of 70 seconds, and the number of projections of 32 times under isoflurane anesthesia. After SPECT, CT (Tube voltage: 60 kV, Tube current: 350 μA) was performed. Image reconstruction was performed on the projection data of SPECT through three-dimensional ordered subset expectation maximization method (8 subsets, 5 iterations).
In the figure, the part indicated by the arrow is the location of the tumor, and the part indicated by the circle is the location of the kidney. The higher the SUV, the higher the radioactivity accumulation. […]
as §1, with “SPECT/CT” for “LNCaP tumor-implanted mice prepared by the method described above were administered saline solutions (1.9 to 3.0 MBq, 150 μL) of [^111In]In-PSMA-DA1 or [^111In]In-PSMA-DB from the tail vein. SPECT/CT”, “24, 48,” for “24”, “96” for “48”

[2] = test system: LNCaP tumor-transplanted mouse; test: Internal radioactivity distribution using LNCaP tumor-transplanted mouse; assay type: in vivo
Method in brief: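 Biodistribution is given as percent injected dose per gram of tissue, measured in blood and organs harvested at time points from 1 h to 192 h. Radiotracers were given by tail-vein injection in saline at 185–259 kBq, n=2–3. Hosts were male CB17 SCID mice carrying LNCaP or PC-3 tumours implanted s.c. in Matrigel 40–60 days earlier.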

radioactivity accumulation at the LNCaP tumor in SPECT/CT [1]: high radioactivity accumulation
radioactivity accumulation at the kidney in SPECT/CT [1]: also observed
Blood ([2]; 1 h after administration): 14.4 ± 1.81 % ID/g
Brain ([2]; 1 h after administration): 0.20 ± 0.03 % ID/g
Heart ([2]; 1 h after administration): 3.98 ± 0.51 % ID/g
Intestine ([2]; 1 h after administration): 1.55 ± 0.21 % ID/g
Kidney ([2]; 1 h after administration): 121 ± 14.9 % ID/g
LNCaP Tumor ([2]; 1 h after administration): 12.5 ± 0.26 % ID/g
Liver ([2]; 1 h after administration): 2.75 ± 0.54 % ID/g
Lung ([2]; 1 h after administration): 10.1 ± 1.34 % ID/g
Muscle ([2]; 1 h after administration): 1.44 ± 0.24 % ID/g
Pancreas ([2]; 1 h after administration): 1.73 ± 0.18 % ID/g
Spleen ([2]; 1 h after administration): 18.5 ± 4.39 % ID/g
Stomach (% ID) ([2]; 1 h after administration): 0.51 ± 0.22 % ID
Blood ([2]; 4 h after administration): 6.73 ± 1.63 % ID/g
Brain ([2]; 4 h after administration): 0.14 ± 0.02 % ID/g
Heart ([2]; 4 h after administration): 1.89 ± 0.49 % ID/g
Intestine ([2]; 4 h after administration): 1.65 ± 0.37 % ID/g
Kidney ([2]; 4 h after administration): 177 ± 35.7 % ID/g
LNCaP Tumor ([2]; 4 h after administration): 13.7 ± 3.24 % ID/g
Liver ([2]; 4 h after administration): 1.67 ± 0.47 % ID/g
Lung ([2]; 4 h after administration): 5.02 ± 0.89 % ID/g
Muscle ([2]; 4 h after administration): 0.63 ± 0.19 % ID/g
Pancreas ([2]; 4 h after administration): 1.59 ± 0.94 % ID/g
Spleen ([2]; 4 h after administration): 13.2 ± 2.66 % ID/g
Stomach (% ID) ([2]; 4 h after administration): 0.23 ± 0.02 % ID
Blood ([2]; 24 h after administration): 0.84 ± 0.27 % ID/g
Brain ([2]; 24 h after administration): 0.03 ± 0.01 % ID/g
Heart ([2]; 24 h after administration): 0.33 ± 0.05 % ID/g
Intestine ([2]; 24 h after administration): 0.82 ± 0.68 % ID/g
Kidney ([2]; 24 h after administration): 55.3 ± 19.3 % ID/g
LNCaP Tumor ([2]; 24 h after administration): 8.64 ± 2.27 % ID/g
Liver ([2]; 24 h after administration): 0.33 ± 0.02 % ID/g
Lung ([2]; 24 h after administration): 0.74 ± 0.12 % ID/g
Muscle ([2]; 24 h after administration): 0.07 ± 0.02 % ID/g
Pancreas ([2]; 24 h after administration): 0.19 ± 0.05 % ID/g
Spleen ([2]; 24 h after administration): 1.97 ± 0.90 % ID/g
Stomach (% ID) ([2]; 24 h after administration): 0.21 ± 0.15 % ID
Blood ([2]; 48 h after administration): 0.26 ± 0.23 % ID/g
Brain ([2]; 48 h after administration): 0.02 ± 0.01 % ID/g
Heart ([2]; 48 h after administration): 0.18 ± 0.12 % ID/g
Intestine ([2]; 48 h after administration): 0.68 ± 0.32 % ID/g
Kidney ([2]; 48 h after administration): 22.4 ± 14.5 % ID/g
LNCaP Tumor ([2]; 48 h after administration): 8.10 ± 2.67 % ID/g
Liver ([2]; 48 h after administration): 0.32 ± 0.10 % ID/g
Lung ([2]; 48 h after administration): 0.45 ± 0.18 % ID/g
Muscle ([2]; 48 h after administration): 0.04 ± 0.05 % ID/g
Pancreas ([2]; 48 h after administration): 0.13 ± 0.06 % ID/g
Spleen ([2]; 48 h after administration): 1.13 ± 0.70 % ID/g
Stomach (% ID) ([2]; 48 h after administration): 0.16 ± 0.14 % ID
Blood ([2]; 96 h after administration): 0.01 ± 0.01 % ID/g
Brain ([2]; 96 h after administration): 0.01 ± 0.00 % ID/g
Heart ([2]; 96 h after administration): 0.07 ± 0.02 % ID/g
Intestine ([2]; 96 h after administration): 0.45 ± 0.29 % ID/g
Kidney ([2]; 96 h after administration): 3.27 ± 0.26 % ID/g
LNCaP Tumor ([2]; 96 h after administration): 4.48 ± 0.78 % ID/g
Liver ([2]; 96 h after administration): 0.22 ± 0.01 % ID/g
Lung ([2]; 96 h after administration): 0.14 ± 0.08 % ID/g
Muscle ([2]; 96 h after administration): 0.05 ± 0.02 % ID/g
Pancreas ([2]; 96 h after administration): 0.06 ± 0.02 % ID/g
Spleen ([2]; 96 h after administration): 0.61 ± 0.04 % ID/g
Stomach (% ID) ([2]; 96 h after administration): 0.04 ± 0.02 % ID
Blood ([2]; 192 h after administration): 0.01 ± 0.01 % ID/g
Brain ([2]; 192 h after administration): 0.01 ± 0.01 % ID/g
Heart ([2]; 192 h after administration): 0.06 ± 0.02 % ID/g
Intestine ([2]; 192 h after administration): 0.27 ± 0.18 % ID/g
Kidney ([2]; 192 h after administration): 1.76 ± 0.70 % ID/g
LNCaP Tumor ([2]; 192 h after administration): 1.76 ± 0.45 % ID/g
Liver ([2]; 192 h after administration): 0.20 ± 0.05 % ID/g
Lung ([2]; 192 h after administration): 0.07 ± 0.02 % ID/g
Muscle ([2]; 192 h after administration): 0.01 ± 0.01 % ID/g
Pancreas ([2]; 192 h after administration): 0.08 ± 0.02 % ID/g
Spleen ([2]; 192 h after administration): 0.44 ± 0.12 % ID/g
Stomach (% ID) ([2]; 192 h after administration): 0.01 ± 0.01 % ID
SMILES: O=C([O-])CN(Cc1cccc(C(=O)[O-])n1)C[C@H](Cc1ccc(NC(=O)[C@H](CCCCNC(=O)CCC(=O)NCCCC[C@H](NC(=O)N[C@@H](CCC(=O)O)C(=O)O)C(=O)O)NC(=O)CCCc2ccc(I)cc2)cc1)N(CC(=O)[O-])Cc1cccc(C(=O)[O-])n1.[111In+3] [[^111In]In-Octapa-2]
